{"source": "patent US10245256B2", "about": "“Nitroxides for use in treating or preventing diabetes and obesity” (Mitos Pharmaceuticals, Inc., priority 2005, dated 2019)", "key": {"adiponectin": {"tested_on": "adiponectin", "test": "Serum level of adiponectin of patient after Tempol treatment", "format": "in vivo, human", "settings": "1500 mg per day for 180 days", "description": "(§1) A 70-kilogram diabetic patient is administered a dose of 1500 mg of Tempol per day for 180 days. This may be administered in a single dose, or may be administered as a number of smaller doses over a 24-hour period: for example, three 500-mg doses at eight-hour intervals. Following treatment, the protein level of keratinocyte growth factor in the pancreatic ductal cells, and the serum level of adiponectin, is increased.\n(§2) A 70-kilogram patient at risk for but not yet diagnosed with diabetes is administered a dose of 1500 mg of Tempol per day for 180 days. This may be administered in a single dose, or may be administered as a number of smaller doses over a 24-hour period: for example, three 500-mg doses at eight-hour intervals. Following treatment, the protein level of keratinocyte growth factor in the pancreatic ductal cells, and the serum level of adiponectin, is increased."}, "[1]": {"tested_on": "Keratinocyte Growth Factor (Fibroblast Growth Factor 7)", "test": "Gene expression in cardiac tissue of mice fed Tempol, chip-based microarray", "format": "in vivo", "settings": "5 mg/g of food from 14 to 31 months", "description": "To assess the effects of Tempol on gene expression, Tempol was administered to experimental mice at a dose of 5 mg/g of food from 14 months to 31 months after birth. Mice receiving the same food without the addition of Tempol were used as a negative control. At the age of 31 months, the experimental animals were sacrificed and the hearts were surgically removed. The expression of a broad spectrum of genes in the cardiac tissue was assessed using chip-based microarray technology. Such chips are well known in the art and are widely used to assess gene expression."}, "[2]": {"tested_on": "Adiponectin, C1Q and collagen domain containing (ADIPOQ)", "test": "Gene expression in adipose tissue of mice fed Tempol, Affymetrix MOE430A 2.0 array", "format": "in vivo", "settings": "5 g/kg of diet from 12 through 15 months", "description": "In a further gene expression study, Tempol was administered to experimental mice at a dose of 5 g/kg of diet from 12 months through 15 months. Mice receiving the same diet without the addition of Tempol were used as a negative control. At the age of 15 months, the adipose tissue of the experimental animals was obtained. The expression of a broad spectrum of genes in the adipose tissue was assessed using chip-based microarray technology. Specifically, in this case an Affymetrix MOE430A 2.0 array, containing 12,960 genes, was employed. Such chips are well known in the art and are widely used to assess gene expression."}, "[3]": {"tested_on": "keratinocyte growth factor", "test": "Protein level of keratinocyte growth factor in pancreatic ductal cells of patient after Tempol treatment", "format": "in vivo, human", "settings": "1500 mg per day for 180 days", "description": "as §1, §2"}, "[4]": {"settings": "70-kilogram patient at risk for but not yet diagnosed with diabetes"}}}
{"smiles": "CC1(C)CC(O)CC(C)(C)N1[O]", "note": "[Tempol, 4-hydroxy-2,2,6,6-tetramethylpiperidine-1-oxyl]", "values": [{"measurement": "serum level of adiponectin", "setting": "adiponectin; 70-kilogram diabetic patient", "value": "increased"}, {"measurement": "serum level of adiponectin", "setting": "adiponectin; [4]", "value": "increased"}, {"measurement": "KGF expression, TEMPOL-treated mouse tp51", "setting": "[1]; microarray signal, individual animal tp51", "value": 13}, {"measurement": "KGF expression, TEMPOL-treated mouse tp52", "setting": "[1]; microarray signal, individual animal tp52", "value": 52}, {"measurement": "KGF expression, TEMPOL-treated mouse tp53", "setting": "[1]; microarray signal, individual animal tp53", "value": 96}, {"measurement": "Fold change of KGF expression", "setting": "[1]; TEMPOL-treated vs control mice", "value": 2.1, "unit": "fold"}, {"measurement": "Mean adiponectin expression (Tempol-treated mice)", "setting": "[2]; microarray signal, control mean 27698", "value": 33876}, {"measurement": "Fold change of adiponectin expression", "setting": "[2]; Tempol-treated vs control mice, P value 0.003", "value": "increase in expression"}, {"measurement": "protein level of keratinocyte growth factor in the pancreatic ductal cells", "setting": "[3]; 70-kilogram diabetic patient", "value": "increased"}, {"measurement": "protein level of keratinocyte growth factor in the pancreatic ductal cells", "setting": "[3]; [4]", "value": "increased"}]}
